Source: patent US9585891B2 (MERCK PATENT GMBH, priority 2012, dated 2017)

How the values were obtained:
[1] = molecular target: T1, Human recombinant Vanin-1 (VNN1) (Homo sapiens, UniProt O95497); test: Vanin-1 enzymatic assay (fluorescence intensity, Pantothenate-AMC substrate); assay type: biochemical; conditions: purified recombinant human Vanin-1 0.5 nM; 30 min preincubation at 30° C.; Pantothenate-AMC 30 μM, 60 min
T1 construct: purchased Sino Biological Inc. 11662-H08H
T1 sequence (O95497 22-491): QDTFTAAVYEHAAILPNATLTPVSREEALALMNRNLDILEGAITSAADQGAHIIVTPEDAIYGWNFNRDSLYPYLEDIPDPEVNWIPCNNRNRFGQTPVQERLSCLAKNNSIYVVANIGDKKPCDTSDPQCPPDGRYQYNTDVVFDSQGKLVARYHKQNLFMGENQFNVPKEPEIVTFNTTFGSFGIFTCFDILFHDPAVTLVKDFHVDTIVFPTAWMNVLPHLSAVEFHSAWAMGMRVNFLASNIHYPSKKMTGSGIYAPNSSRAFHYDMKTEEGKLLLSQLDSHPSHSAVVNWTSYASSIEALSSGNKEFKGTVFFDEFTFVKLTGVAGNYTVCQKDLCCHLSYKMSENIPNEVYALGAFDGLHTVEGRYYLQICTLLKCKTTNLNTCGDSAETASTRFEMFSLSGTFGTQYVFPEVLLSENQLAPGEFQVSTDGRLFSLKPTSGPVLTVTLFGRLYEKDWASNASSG
Method: Human recombinant Vanin-1 (VNN1) was purchased from Sino Biological Inc. (Catalog Number: 11662-H08H).
Measurement of VNN1 inhibition is performed in 384-well format based on fluorescence intensity assay. Purified recombinant human Vanin-1 (0.5 nM) and threefold serial diluted compounds in 3% DMSO (range of concentrations from 30 μM to 1.524 nM) or controls (3.0% DMSO) are incubated for 30 minutes at 30° C. with gentle agitation in assay buffer containing 100 mM potassium Phosphate Buffer (KPi), pH 7.5, 0.001% Bovine Serum Albumin (BSA), 0.5 mM dithiothreitol (DTT) and 0.0025% Brij-35. The reaction is initiated by the addition of the fluorogenic substrate, Pantothenate-AMC, at a concentration of 30 μM. After 60 minutes of incubation at 30° C. with gentle agitation, fluorescence intensity is measured at λex=350 nm and λem=450 nm with a fluorescence reader (BMG PHERAstar reader or equivalent).

[2] = molecular target: T2, Vanin-1 in SUIT-S2 cell line (Homo sapiens, UniProt O95497); test: Vanin-1 cell-based mechanistic assay (fluorescence intensity, Pantothenate-AMC substrate); conditions: 40000 cells per well, 2 hours incubation at 37° C., Pantothenate-AMC 30 μM, 30 min
T2 construct: endogenous in cells; host or cells: SUIT-S2 cell line (ATCC # CRL1596)
T2 sequence (O95497 22-491): T1 sequence (O95497 22-491)
Method: Vanin-1 Cell-Based Mechanistic Assay:
The cellular activity of the examples is measured in 96-well format based on fluorescence intensity assay using SUIT-S2 cell line (ATCC # CRL1596).
Cells are cultured at 37° C. with 5% CO2 to 80-90% confluence and then washed once with phosphate-buffered saline (PBS). Adherent cells are detached with PBS-EDTA and once in suspension 40000 cells are dispensed in 90 μl of PBS in 96-well black plates with clear bottoms. Threefold serial dilutions of test compounds are made in DMSO and then solubilized in PBS, dilution range 1:30. Cells and serial diluted test compounds (final concentrations 10 μM to 4.6 nM) or controls (PBS/0.3% DMSO) are incubated for 2 hours at 37° C. with 5% CO2. The reaction is initiated by the addition of the fluorogenic substrate, Pantothenate-AMC, at a concentration of 30 μM. After 30 minutes of incubation at 30° C. with gentle agitation, fluorescence intensity is measured at λex=350 nm and λem=450 nm with a fluorescence reader (BMG PHERAstar reader or equivalent).

Row | IC50 [1] | IC50 [2] | Structure (SMILES)
1 | 20 nM | < 10 nM | CC(C)(CO)[C@@H](O)C(=O)NCCC(=O)C(=O)NCc1ccc(OCCNS(C)(=O)=O)cc1 [Example 39, (R)-2,4-Dihydroxy-N-(3-[4-(2-methanesulfonylamino-ethoxy)-benzylcarbamoyl]-3-oxo-propyl)-3,3-dimethyl-butyramide]
2 | 2540 nM | 1110 nM | CC(C)(CO)[C@@H](O)C(=O)NCCNC(=O)CCl [Example 57, (R)—N-[2-(2-Chloro-acetylamino)-ethyl]-2,4-dihydroxy-3,3-dimethyl-butyramide]
3 | 2480 nM | 220 nM | CC(C)(CO)[C@@H](O)C(=O)NCCN(CCCc1ccccc1)C(=O)CCl [Example 58, (R)—N-{2-[(2-Chloro-acetyl)-(3-phenyl-propyl)-amino]-ethyl}-2,4-dihydroxy-3,3-dimethyl-butyramide]
4 | 4040 nM | 1200 nM | CC(C)(CO)[C@@H](O)C(=O)NCCN(CCc1ccccc1)C(=O)CCl [Example 59, (R)—N-{2-[(2-Chloro-acetyl)-phenethyl-amino]-ethyl}-2,4-dihydroxy-3,3-dimethyl-butyramide]
5 | 3570 nM | 600 nM | CC(C)(CO)[C@@H](O)C(=O)NCCN(Cc1ccccc1)C(=O)CCl [Example 60, (R)—N-{2-[Benzyl-(2-chloro-acetyl)-amino]-ethyl}-2,4-dihydroxy-3,3-dimethyl-butyramide]
6 | 3280 nM | 220 nM | CC(C)(CO)[C@@H](O)C(=O)NCCN(CCOc1ccc(C#N)cc1)C(=O)CCl [Example 61, (R)—N-(2-{(2-Chloro-acetyl)-[2-(4-cyano-phenoxy)-ethyl]-amino}-ethyl)-2,4-dihydroxy-3,3-dimethyl-butyramide]
7 | 1360 nM | 210 nM | CC(C)(CO)[C@@H](O)C(=O)NCCN(CC1CCN(c2ccc(C#N)cc2)CC1)C(=O)CCl [Example 62, (R)—N-(2-{(2-Chloro-acetyl)-[1-(4-cyano-phenyl)-piperidin-4-ylmethyl]-amino}-ethyl)-2,4-dihydroxy-3,3-dimethyl-butyramide]
